Source: PubChem BioAssay AID330 (DTP/NCI, 2004)
Values joined by “and” are separate entries in the source; they are usually repeats but may differ in a detail not shown here. Identical values can stand only once. Toxic doses and inconclusive results are not listed. How the source made its calls: active means survival T/C of 150% or more; inactive means T/C below 125% in these data. Numbered stars: 1 amine (or outer) side, 2 acyl side, 3 side chain; on linkers, the order of the positions; unused ones are H or OH. Square brackets hold non-standard residues; d marks the D form. Peptide text beside a SMILES is read from it. * marks the point of attachment. X18 = CCC(=O)CC1CC(C)CC(C(=O)[*:2])N1[*:1]; X17 = CCCCCCCCC(C)C(=O)*; Aib = CC(C)(N)C(=O)O; X19 = CC(CN(C)CCO)N*

Test system: P388 leukemia ip, CD2F1 mice, survival T/C
Experiment: NCI In Vivo Anticancer Drug Screen. Data for tumor model P388 Leukemia (intraperitoneal) in CD2F1 (CDF1) mice
Details: endpoint: median survival time, higher = longer survival
Summary of the method: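 Mice carrying the transplanted tumor received test compound or vehicle. Survival was recorded in each group, and the value is the treated-group measurement divided by that of the vehicle-treated control group.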

[1] = dose: 25.0 mg/kg/injection, schedule: Q01DX001 (ip), vehicle: saline with Tween-80
[2] = dose: 50.0 mg/kg/injection, schedule: Q01DX001 (ip), vehicle: saline with Tween-80
[3] = dose: 100.0 mg/kg/injection, schedule: Q01DX001 (ip), vehicle: saline with Tween-80
[4] = dose: 50.0 mg/kg/injection, schedule: Q01DX009 (ip), vehicle: saline
[5] = dose: 100.0 mg/kg/injection, schedule: Q01DX009 (ip), vehicle: saline
[6] = dose: 200.0 mg/kg/injection, schedule: Q01DX009 (ip), vehicle: saline
[7] = dose: 60.0 mg/kg/injection, schedule: Q01DX005 (ip), vehicle: saline with Tween-80
[8] = dose: 120.0 mg/kg/injection, schedule: Q01DX005 (ip), vehicle: saline with Tween-80
[9] = dose: 50.0 mg/kg/injection, schedule: Q01DX005 (ip), vehicle: saline with Tween-80
[10] = dose: 100.0 mg/kg/injection, schedule: Q01DX005 (ip), vehicle: saline with Tween-80
[11] = dose: 200.0 mg/kg/injection, schedule: Q01DX005 (ip), vehicle: saline with Tween-80
[12] = dose: 50.0 mg/kg/injection, schedule: Q01DX005 (ip), vehicle: Klucel (hydroxypropylcellulose) (HPC)
[13] = dose: 100.0 mg/kg/injection, schedule: Q01DX005 (ip), vehicle: Klucel (hydroxypropylcellulose) (HPC)
[14] = dose: 240.0 mg/kg/injection, schedule: Q01DX005 (ip), vehicle: saline with Tween-80
[15] = dose: 200.0 mg/kg/injection, schedule: Q01DX005 (ip), vehicle: Klucel (hydroxypropylcellulose) (HPC)

Measured: T/C

CC(C)(C)c1ccc(OP(=S)(NN)Oc2ccc(C(C)(C)C)cc2)cc1
inactive: dose: 50.0 mg/kg/injection, schedule: Q01DX009 (ip), vehicle: Klucel (hydroxypropylcellulose) (HPC) 98 % of control | dose: 100.0 mg/kg/injection, schedule: Q01DX009 (ip), vehicle: Klucel (hydroxypropylcellulose) (HPC) 102 % of control | dose: 200.0 mg/kg/injection, schedule: Q01DX009 (ip), vehicle: Klucel (hydroxypropylcellulose) (HPC) 94 % of control

O=C1NC(c2ccccc2)(c2ccccc2)C(=O)N1CN1CCN(CN2C(=O)NC(c3ccccc3)(c3ccccc3)C2=O)CC1
inactive: [1] 100 % of control | [2] 95 % of control | [3] 90 % of control

CC(C)=CCC(OC(=O)C=C(C)C)C1=CC(=O)c2c(O)ccc(O)c2C1=O (stereo not drawn)
inactive: dose: 1.56 mg/kg/injection, schedule: Q01DX009 (ip), vehicle: water 108 % of control | dose: 3.12 mg/kg/injection, schedule: Q01DX009 (ip), vehicle: water 107 % of control | dose: 6.25 mg/kg/injection, schedule: Q01DX009 (ip), vehicle: water 117 % of control | dose: 10.0 mg/kg/injection, schedule: Q01DX009 (ip), vehicle: saline with Tween-80 110 % of control | dose: 10.0 mg/kg/injection, schedule: Q04DX003 (ip), vehicle: saline with Tween-80 109 % of control | dose: 12.5 mg/kg/injection, schedule: Q01DX009 (ip), vehicle: water 119 % of control | dose: 20.0 mg/kg/injection, schedule: Q01DX009 (ip), vehicle: saline with Tween-80 110 % of control | dose: 20.0 mg/kg/injection, schedule: Q04DX003 (ip), vehicle: saline with Tween-80 90 % of control | dose: 40.0 mg/kg/injection, schedule: Q04DX003 (ip), vehicle: saline with Tween-80 104 % of control

CCn1c(=O)c2c(N(C)C)snc2n(CC)c1=O
inactive: [4] 96 % of control | [5] 107 % of control | [6] 110 % of control

COc1ccc(C(=O)CC[N+](C)(C)C)cc1
inactive: dose: 12.5 mg/kg/injection, schedule: Q01DX009 (ip), vehicle: saline 106 % of control | dose: 25.0 mg/kg/injection, schedule: Q01DX009 (ip), vehicle: saline 101 % of control

O=C(O)Cc1ccc(N2N=C(c3ccccc3)CC2=O)cc1
inactive: [7] 98 % of control | [8] 92 % of control

COC1C=C(Br)C(=O)C(C)O1 (stereo not drawn)
inactive: dose: 100.0 mg/kg/injection, schedule: Q04DX003 (ip), vehicle: Klucel (hydroxypropylcellulose) (HPC) 98 % of control | dose: 200.0 mg/kg/injection, schedule: Q04DX003 (ip), vehicle: Klucel (hydroxypropylcellulose) (HPC) 106 % of control

C=CC(=O)NC(C)(C)C(=O)O
inactive: [4] 99 % of control | [5] 97 % of control | [6] 99 % of control

CCOC(=O)c1c(C(=O)Nc2ccccc2)c(-c2ccccc2)n(NC(N)=O)c1C
inactive: [9] 104 % of control | [10] 105 % of control | [11] 98 % of control

CCCCCCCCC(C)C(=O)N1CCCC1C(=O)N1C(CC(=O)CC)CC(C)CC1C(=O)NC(C)C(=O)NC(C)(C)C(=O)NC(C)(C)C(=O)NC(C(=O)NC(C)C(=O)NC(C)(C)C(=O)NC(C)(C)C(=O)NC(C)CN(C)CCO)C(C)CC (stereo not drawn) (X17-P[X18]A[Aib][Aib]IA[Aib][Aib]-X19; configuration not given here)
inactive: dose: 0.62 mg/kg/injection, schedule: Q01DX009 (ip), vehicle: Klucel (hydroxypropylcellulose) (HPC) 120 % of control | dose: 1.25 mg/kg/injection, schedule: Q01DX009 (ip), vehicle: Klucel (hydroxypropylcellulose) (HPC) 118 % of control | dose: 2.5 mg/kg/injection, schedule: Q01DX009 (ip), vehicle: Klucel (hydroxypropylcellulose) (HPC) 110 % of control

Cc1ncc(CNC(=O)N(CCCl)N=O)c(N)n1
120 % of control and 260 % of control: dose: 40.0 mg/kg/injection, schedule: Q01DX001 (ip), vehicle: saline
active: dose: 10.0 mg/kg/injection, schedule: Q01DX001 (ip), vehicle: saline 191 % of control | dose: 20.0 mg/kg/injection, schedule: Q01DX001 (ip), vehicle: saline 260 % of control and 336 % of control | dose: 30.0 mg/kg/injection, schedule: Q01DX001 (ip), vehicle: saline 517 % of control

COc1cc(Cc2nnc(NN=C(C)C)[nH]c2=O)cc(OC)c1OC
inactive: dose: 50.0 mg/kg/injection, schedule: Q01DX001 (ip), vehicle: Klucel (hydroxypropylcellulose) (HPC) 115 % of control | dose: 100.0 mg/kg/injection, schedule: Q01DX001 (ip), vehicle: Klucel (hydroxypropylcellulose) (HPC) 98 % of control and 100 % of control | dose: 200.0 mg/kg/injection, schedule: Q01DX001 (ip), vehicle: Klucel (hydroxypropylcellulose) (HPC) 100 % of control and 124 % of control | dose: 400.0 mg/kg/injection, schedule: Q01DX001 (ip), vehicle: Klucel (hydroxypropylcellulose) (HPC) 105 % of control and 116 % of control

CCCCN=C1Nc2nc(=NCCCC)nc3c(Br)cc(Br)c(n23)N1
inactive: dose: 0.18 mg/kg/injection, schedule: Q01DX005 (ip), vehicle: Klucel (hydroxypropylcellulose) (HPC) 101 % of control | dose: 0.37 mg/kg/injection, schedule: Q01DX005 (ip), vehicle: Klucel (hydroxypropylcellulose) (HPC) 97 % of control | dose: 0.75 mg/kg/injection, schedule: Q01DX005 (ip), vehicle: Klucel (hydroxypropylcellulose) (HPC) 94 % of control | dose: 30.0 mg/kg/injection, schedule: Q01DX005 (ip), vehicle: Klucel (hydroxypropylcellulose) (HPC) 86 % of control | dose: 60.0 mg/kg/injection, schedule: Q01DX005 (ip), vehicle: Klucel (hydroxypropylcellulose) (HPC) 87 % of control and 89 % of control

O=NN(CCCl)C(=O)OCC(Cl)(Cl)Cl
inactive: dose: 3.12 mg/kg/injection, schedule: Q01DX001 (ip), vehicle: saline with Tween-80 104 % of control | dose: 6.25 mg/kg/injection, schedule: Q01DX001 (ip), vehicle: saline with Tween-80 101 % of control | dose: 12.5 mg/kg/injection, schedule: Q01DX001 (ip), vehicle: saline with Tween-80 113 % of control | [1] 113 % of control and 117 % of control and 119 % of control | [2] 105 % of control and 120 % of control and 123 % of control | [3] 88 % of control

COC(=O)/C(C)=N/SC(c1ccccc1)(c1ccccc1)c1ccccc1
inactive: [9] 102 % of control | [10] 104 % of control | [11] 98 % of control

CCN(CC)CCOC(=O)C(OCC(C)C)(c1ccccc1)c1ccccc1
inactive: [12] 110 % of control | [13] 108 % of control

N#CC1OC1c1cccc[n+]1[O-] (stereo not drawn)
inactive: dose: 6.25 mg/kg/injection, schedule: Q01DX005 (ip), vehicle: saline with Tween-80 98 % of control | dose: 6.25 mg/kg/injection, schedule: Q01DX005 (ip), vehicle: saline 104 % of control | dose: 12.5 mg/kg/injection, schedule: Q01DX005 (ip), vehicle: saline with Tween-80 98 % of control | dose: 12.5 mg/kg/injection, schedule: Q01DX005 (ip), vehicle: saline 96 % of control | dose: 25.0 mg/kg/injection, schedule: Q01DX005 (ip), vehicle: saline 102 % of control

COc1cccc(C(Nc2nncs2)Nc2nncs2)c1[N+](=O)[O-]
inactive: [7] 98 % of control | [8] 98 % of control | [14] 101 % of control

O=[N+]([O-])c1ccc(/C=C/C=C\c2ccc(S(=O)(=O)F)cc2Cl)cc1
inactive: [7] 94 % of control | [8] 96 % of control | [14] 95 % of control

O=c1c2ccccc2c(=O)n2n1C1C=CC2C1
inactive: [12] 107 % of control | [13] 105 % of control | [15] 100 % of control

Cc1ccc(S(=O)(=O)NC(=O)N(C)NC(=O)C(=O)NCc2ccco2)cc1
inactive: dose: 50.0 mg/kg/injection, schedule: Q01DX009 (ip), vehicle: saline with Tween-80 103 % of control | dose: 100.0 mg/kg/injection, schedule: Q01DX009 (ip), vehicle: saline with Tween-80 103 % of control | dose: 200.0 mg/kg/injection, schedule: Q01DX009 (ip), vehicle: saline with Tween-80 99 % of control

O=C(O)C(O)C(O)C(O)C(O)c1nn[nH]n1 (stereo not drawn)
inactive: dose: 100.0 mg/kg/injection, schedule: Q01DX001 (ip), vehicle: saline 101 % of control | dose: 200.0 mg/kg/injection, schedule: Q01DX001 (ip), vehicle: saline 98 % of control | dose: 400.0 mg/kg/injection, schedule: Q01DX001 (ip), vehicle: saline 93 % of control

CCOC(=O)C1CC1C1=C(C)c2cc3[n-]c(cc4nc(cc5[n-]c(cc1n2)c(C)c5CCC(=O)OC)C(CCC(=O)OC)=C4C)c(C)c3C1CC1C(=O)OCC.[Cl-].[Fe+3] (stereo not drawn)
inactive: [12] 102 % of control | [13] 86 % of control | [15] 100 % of control

c1ccc(CSCCOCCOCCSCc2ccccn2)nc1
inactive: [12] 101 % of control | [13] 108 % of control | [15] 104 % of control
